Data as given in patent US7994140B2, “Classes of compounds that interact with GPCRs” (Alchemia Limited, priority 2002, dated 2011).

Columns and labels:
[1] = target: T1, MC4 (Homo sapiens, UniProt P32245); assay: GPCR radioligand binding (RLB) assay, melanocortin MC4, [125I]NDP-αMSH
T1 construct: purchased Perkin Elmer BioSignal; host or cells: HEK 293
How it was run: (§1)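 Competition binding against radioligand ([125I]NDP-αMSH for MC4, [125I]SST-14 for SST5) on membranes of HEK 293 cells carrying the human receptor; buffer and incubation time optimized per receptor. Filtration through 0.5% PEI-treated glass fiber, washing, then scintillation counting.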

[2] = target: T2, SST5 (Homo sapiens, UniProt P35346); assay: GPCR radioligand binding (RLB) assay, somatostatin SST5, [125I]SST-14; details: for SST5 inhibition at 10 micromolar: recombinant human receptor membranes (HEK 293)
T2 construct: purchased Perkin Elmer BioSignal; host or cells: HEK 293
How it was run: as §1

[3] = 10 micromolar, Example Library 4
[4] = 10 micromolar compound, recombinant human receptor membranes (HEK 293)
[5] = 10 micromolar compound, Example Library 8

T2 sequence (P35346 whole entry): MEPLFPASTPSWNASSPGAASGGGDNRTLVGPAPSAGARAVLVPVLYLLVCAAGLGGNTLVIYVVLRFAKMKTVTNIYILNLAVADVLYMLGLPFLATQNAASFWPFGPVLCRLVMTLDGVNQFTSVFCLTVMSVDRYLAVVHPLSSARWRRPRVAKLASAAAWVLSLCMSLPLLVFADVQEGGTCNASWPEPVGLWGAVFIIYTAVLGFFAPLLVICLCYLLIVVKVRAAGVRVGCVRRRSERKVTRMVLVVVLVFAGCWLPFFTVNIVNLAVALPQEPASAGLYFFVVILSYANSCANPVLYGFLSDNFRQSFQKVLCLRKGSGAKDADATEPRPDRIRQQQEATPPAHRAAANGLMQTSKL
T1 sequence (P32245 whole entry): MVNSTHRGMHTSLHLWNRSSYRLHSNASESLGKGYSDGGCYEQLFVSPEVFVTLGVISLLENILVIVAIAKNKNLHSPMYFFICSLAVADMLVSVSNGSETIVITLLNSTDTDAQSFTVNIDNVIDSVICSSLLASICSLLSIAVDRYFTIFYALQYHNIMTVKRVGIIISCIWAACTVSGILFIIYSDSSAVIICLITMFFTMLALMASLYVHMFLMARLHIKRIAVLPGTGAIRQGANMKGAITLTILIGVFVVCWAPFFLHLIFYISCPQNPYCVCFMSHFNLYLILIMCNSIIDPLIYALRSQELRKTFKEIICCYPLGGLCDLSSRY

Row | SMILES | MC4 inhibition at 10 micromolar [1, 3] | SSTS inhibition at 10 micromolar [2, 3] | MC4 inhibition at 10 micromolar [1, 4] | SST5 inhibition at 10 micromolar ([2]; 10 micromolar compound) | SSTS inhibition at 10 micromolar [2, 5]
1 | COCC1OC(OCCc2ccccc2)C(NC(=O)CCNC(=N)N)C(OCc2ccc3ccccc3c2)C1O (stereo not drawn) [Compound 281] | + (Indicates inhibition greater than . . . 50%) | + (Indicates inhibition greater than . . . 50%) |  |  | 
2 | COCC1OC(OCCc2ccccc2)C(NC(=O)CCCN)C(OCc2ccc3ccccc3c2)C1O (stereo not drawn) [Compound 282] | + (Indicates inhibition greater than . . . 50%) | + (Indicates inhibition greater than . . . 50%) |  |  | 
3 | COCC1OC(OCCc2ccccc2)C(NC(=O)CCCNC(=N)N)C(OCc2ccc3ccccc3c2)C1O (stereo not drawn) [Compound 283] | + (Indicates inhibition greater than . . . 50%) | + (Indicates inhibition greater than . . . 50%) |  |  | 
4 | COCC1OC(OCc2ccc3ccccc3c2)C(NC(=O)CNC(=N)N)C(OCc2ccccc2)C1O (stereo not drawn) [Compound 285] | + (Indicates inhibition greater than . . . 50%) | + (Indicates inhibition greater than . . . 50%) |  |  | 
5 | COCC1OC(OCc2ccc3ccccc3c2)C(NC(=O)CN)C(OCc2ccccc2)C1O (stereo not drawn) [Compound 286] | + (Indicates inhibition greater than . . . 50%) | + (Indicates inhibition greater than . . . 50%) |  |  | 
6 | COCC1OC(OCc2ccc3ccccc3c2)C(NC(=O)CCNC(=N)N)C(OCc2ccccc2)C1O (stereo not drawn) [Compound 287] | + (Indicates inhibition greater than . . . 50%) | + (Indicates inhibition greater than . . . 50%) |  |  | 
7 | COCC1OC(OCc2ccc3ccccc3c2)C(NC(=O)CNC(=N)N)C(OCc2ccc(Cl)cc2)C1O (stereo not drawn) [Compound 291] | + (Indicates inhibition greater than . . . 50%) | + (Indicates inhibition greater than . . . 50%) |  |  | 
8 | COCC1OC(OCc2ccc3ccccc3c2)C(NC(=O)CCNC(=N)N)C(OCc2ccc(Cl)cc2)C1O (stereo not drawn) [Compound 293] | + (Indicates inhibition greater than . . . 50%) | + (Indicates inhibition greater than . . . 50%) |  |  | 
9 | COCC1OC(OCc2ccc3ccccc3c2)C(NC(=O)CCCN)C(OCc2ccc(Cl)cc2)C1O (stereo not drawn) [Compound 294] | + (Indicates inhibition greater than . . . 50%) | + (Indicates inhibition greater than . . . 50%) |  |  | 
10 | COCC1OC(OCc2ccc3ccccc3c2)C(NC(=O)CCCNC(=N)N)C(OCc2ccc(Cl)cc2)C1O (stereo not drawn) [Compound 295] | + (Indicates inhibition greater than . . . 50%) | + (Indicates inhibition greater than . . . 50%) |  |  | 
11 | COCC1OC(OCc2ccc3ccccc3c2)C(NC(=O)CNC(=N)N)C(OCc2ccc(-c3ccccc3)cc2)C1O (stereo not drawn) [Compound 297] | + (Indicates inhibition greater than . . . 50%) | + (Indicates inhibition greater than . . . 50%) |  |  | 
12 | COCC1OC(OCc2ccc3ccccc3c2)C(NC(=O)CN)C(OCc2ccc(-c3ccccc3)cc2)C1O (stereo not drawn) [Compound 298] | + (Indicates inhibition greater than . . . 50%) | + (Indicates inhibition greater than . . . 50%) |  |  | 
13 | COCC1OC(OCc2ccc3ccccc3c2)C(NC(=O)CCNC(=N)N)C(OCc2ccc(-c3ccccc3)cc2)C1O (stereo not drawn) [Compound 299] | + (Indicates inhibition greater than . . . 50%) | + (Indicates inhibition greater than . . . 50%) |  |  | 
14 | COCC1OC(OCc2ccc3ccccc3c2)C(NC(=O)CCCN)C(OCc2ccc(-c3ccccc3)cc2)C1O (stereo not drawn) [Compound 300] | + (Indicates inhibition greater than . . . 50%) | + (Indicates inhibition greater than . . . 50%) |  |  | 
15 | COCC1OC(OCc2ccc3ccccc3c2)C(NC(=O)CCCNC(=N)N)C(OCc2ccc(-c3ccccc3)cc2)C1O (stereo not drawn) [Compound 301] | + (Indicates inhibition greater than . . . 50%) | + (Indicates inhibition greater than . . . 50%) |  |  | 
16 | COCC1OC(OCc2ccc3ccccc3c2)C(NC(=O)CN)C(OCc2ccc3ccccc3c2)C1O (stereo not drawn) [Compound 302] | + (Indicates inhibition greater than . . . 50%) | + (Indicates inhibition greater than . . . 50%) |  |  | 
17 | COCC1OC(OCc2ccc3ccccc3c2)C(NC(=O)CNC(=N)N)C(OCc2ccc3ccccc3c2)C1O (stereo not drawn) [Compound 303] | + (Indicates inhibition greater than . . . 50%) | + (Indicates inhibition greater than . . . 50%) |  |  | 
18 | COCC1OC(OCc2ccc3ccccc3c2)C(NC(=O)CCNC(=N)N)C(OCc2ccc3ccccc3c2)C1O (stereo not drawn) [Compound 305] | + (Indicates inhibition greater than . . . 50%) | + (Indicates inhibition greater than . . . 50%) |  |  | 
19 | COCC1OC(OCc2ccc3ccccc3c2)C(NC(=O)CCCNC(=N)N)C(OCc2ccc3ccccc3c2)C1O (stereo not drawn) [Compound 307] | + (Indicates inhibition greater than . . . 50%) | + (Indicates inhibition greater than . . . 50%) |  |  | 
20 | CSC1OC(COC(=O)CCC2CNc3ccccc32)C(O)C(OCc2cccc(N)c2)C1NCc1ccccc1 (stereo not drawn) [Compound 311] |  |  | + (Indicates inhibition greater than . . . 50%) | + (Indicates inhibition greater than . . . 50%) | 
21 | CSC1OC(COC(=O)Cc2ccccc2)C(O)C(OCc2cccc(N)c2)C1NCc1ccc(Cl)cc1 (stereo not drawn) [Compound 313] |  |  | + (Indicates inhibition greater than . . . 50%) | + (Indicates inhibition greater than . . . 50%) | 
22 | CSC1O[C@H](COCc2ccccc2)[C@@H](O)[C@H](OCc2cccc(N)c2)[C@H]1NC(=O)CCC1CNc2ccccc21 (stereo partly drawn) [Compound 320] |  |  | + (Indicates inhibition greater than . . . 50%) | + (Indicates inhibition greater than . . . 50%) | 
23 | CSC1O[C@H](COCc2ccc(Cl)cc2)[C@@H](O)[C@H](OCc2cccc(N)c2)[C@H]1NC(=O)Cc1c[nH]c2ccccc12 (stereo partly drawn) [Compound 324] |  |  | + (Indicates inhibition greater than . . . 50%) | + (Indicates inhibition greater than . . . 50%) | 
24 | CSC1OC(COCc2cccc(N)c2)C(O)C(OCc2ccccc2)C1NC(=O)Cc1ccccc1 (stereo not drawn) [Compound 327] |  |  | + (Indicates inhibition greater than . . . 50%) | + (Indicates inhibition greater than . . . 50%) | 
25 | CSC1OC(COCc2cccc(N)c2)C(O)C(OCc2ccccc2)C1NC(=O)CCC1CNc2ccccc21 (stereo not drawn) [Compound 330] |  |  | + (Indicates inhibition greater than . . . 50%) | + (Indicates inhibition greater than . . . 50%) | 
26 | CSC1OC(COCc2cccc(N)c2)C(O)C(OCc2ccc(Cl)cc2)C1NC(=O)c1ccccc1 (stereo not drawn) [Compound 331] |  |  | + (Indicates inhibition greater than . . . 50%) | + (Indicates inhibition greater than . . . 50%) | 
27 | CSC1O[C@H](COCc2cccc(N)c2)[C@@H](O)[C@H](OCc2ccccc2)[C@H]1NC(=O)Cc1c[nH]c2ccccc12 (stereo partly drawn) [Compound 336] |  |  | + (Indicates inhibition greater than . . . 50%) |  | + (Indicates inhibition greater than . . . 50%)
28 | CSC1O[C@H](COCc2cccc(N)c2)[C@@H](O)[C@H](OCc2ccc(Cl)cc2)[C@H]1NC(=O)c1ccccc1 (stereo partly drawn) [Compound 338] |  |  | + (Indicates inhibition greater than . . . 50%) |  | + (Indicates inhibition greater than . . . 50%)
29 | CSC1O[C@H](COCc2cccc(N)c2)[C@@H](O)[C@H](OCc2ccc(Cl)cc2)[C@H]1NC(=O)Cc1ccccc1 (stereo partly drawn) [Compound 339] |  |  | + (Indicates inhibition greater than . . . 50%) |  | + (Indicates inhibition greater than . . . 50%)
30 | CSC1O[C@H](COCc2cccc(N)c2)[C@@H](O)[C@H](OCc2ccc(Cl)cc2)[C@H]1NC(=O)Cc1c[nH]c2ccccc12 (stereo partly drawn) [Compound 341] |  |  | + (Indicates inhibition greater than . . . 50%) |  | + (Indicates inhibition greater than . . . 50%)
